Experimental data as given in article PMC7896091, “Synthesis of novel phytol-derived γ-butyrolactones and evaluation of their biological activity” (Scientific Reports, 2021).

Assays:
Myzus persicae = test: Aphid settling (choice test) on treated vs control leaves of Brassica rapa subsp. pekinensis; format: in vivo; conditions: for Mean number of aphids settled on treated (test) leaf: 0.1% solution in 70% ethanol, mean (± SD), n = 8, 20 aphids/replicate; for Effect on aphid settling behavior (deterrent / attractant): choice test, 0.1% solution, significance p < 0.05 Student t-test
Method: The peach potato aphids Myzus persicae (Sulzer) and the Chinese cabbage Brassica rapa subsp. pekinensis (Lour.) Hanelt were reared in laboratory at 20 °C, 65% r.h., and L16:8D photoperiod. One to seven days old apterous females of M. persicae and 3-week old plants with 4–5 fully developed leaves were used for experiments. M. persicae were obtained from the laboratory culture maintained at the Department of Botany and Ecology for many generations since 2000. All experiments were carried out under the same conditions of temperature, relative humidity, and photoperiod. The bioassays were started at 10–11.a.m. Each compound was dissolved in 70% ethanol to obtain the recommended 0.1% solution[40]. All compounds were applied on the adaxial and abaxial leaf surfaces by immersing a leaf in the ethanolic solution of a given compound for 30 s.[20]. Control leaves of similar size were immersed in 70% ethanol that was used as a solvent for the studied compounds. Experiments were performed 1 h after the compounds application to allow the evaporation of the solvent. Every plant and aphid were used only once.
This bioassay allows the study of aphid host preferences under semi-natural conditions. In the present study, aphids were given free choice between control and treated excised leaves that were placed in a Petri dish. Aphids were placed in the dish equidistance from treated and untreated leaves, so that aphids could choose between treated (on one half of a Petri dish) and control leaves (on the other half of the dish). […] Each experiment was replicated 8 times (n = 8 replicates, 20 viviparous apterous females/replicate). Aphids that were moving or not on any of the leaves were not counted.
The data of the choice-test were analyzed using Student’s t-test (STATISTICA 13.1. package). […] If aphids settled mainly on the control leaf (p < 0.05), the compound tested in the respective choice-test was stated a deterrent. From the data thus obtained the relative index of deterrence (DI) was calculated: DI = (C − T/C + T) where C was the number of aphids settled on control leaf, T was the number of aphids settled on the leaf treated with the tested compound. The value of DI ranged between 1 (ideal deterrent) and − 1 (ideal attractant)[41].

LoVo/DX cells = test: Antiproliferative activity, SRB assay, doxorubicin resistant subline; format: cell-based, human; conditions: for IC50: 72 h exposure, SRB, mean ± SD, n.a = no activity in concentration of 5, 25, 125, 625 μM; for Selectivity index SI, LoVo/DX: SI = IC50 BALB/3T3 / IC50 LoVo/DX
Method: Cell lines were cultured according to the protocol described before. […] All culture media were supplemented with 2 mM L-glutamine (Sigma-Aldrich, Germany), 100 units/mL penicillin, and 100 µg/mL streptomycin (both from Polfa Tarchomin S.A., Poland). All cell lines were grown at 37 °C with 5% CO2 humidified atmosphere. The solutions of the compounds (50 mM) were prepared by dissolving the substances in DMSO (Sigma Aldrich, Germany). […] The in vitro cytotoxic effect of all agents was examined using the MTT (MV4-11) or SRB assay, described previously. […] Each compound in each concentration was tested in triplicate in a single experiment, which was repeated 3–5 times.

MV4-11 cells = test: Antiproliferative activity, MTT assay; format: cell-based, human; conditions: for IC50: 72 h exposure, MTT, mean ± SD, n.a = no activity in concentration of 5, 25, 125, 625 μM; for Selectivity index SI, MV4-11: SI = IC50 BALB/3T3 / IC50 MV4-11
Method: Human biphenotypic B myelomonocytic leukemia MV4-11, human colon cancer LoVo cell line and normal mouse fibroblast BALB/3T3 cells were obtained from American Type Culture Collection (Rockville, Maryland, USA), human lung carcinoma A549 cells were obtained from European Collection of Authenticated Cell Cultures (UK). All the cell lines are being maintained at the Hirszfeld Institute of Immunology and Experimental Therapy, PAS, Wroclaw, Poland and were cultured according the procedure described before.
Cell lines were cultured according to the protocol described before. MV4-11 cells were cultured in RPMI 1640 medium (Gibco, UK) with 1.0 mM sodium pyruvate, and 10% fetal bovine serum (FBS) (all from Sigma-Aldrich, Germany). A549, LoVo and LoVo/DX cells were cultured in RPMI 1640 + Opti-MEM (1:1) (both from Gibco, UK) supplemented with 5% fetal bovine serum, 1.0 mM sodium pyruvate (LoVo and LoVo/DX cells) (all from Sigma Aldrich Germany) and 0.1 μg/mL doxorubicin chloride (Accord) (only LoVo/DX cells). BALB/3T3 cells in Dulbecco medium (IIET, Poland) supplemented with 10% fetal bovine serum (Sigma-Aldrich, Germany). All culture media were supplemented with 2 mM L-glutamine (Sigma-Aldrich, Germany), 100 units/mL penicillin, and 100 µg/mL streptomycin (both from Polfa Tarchomin S.A., Poland). All cell lines were grown at 37 °C with 5% CO2 humidified atmosphere.
The solutions of the compounds (50 mM) were prepared by dissolving the substances in DMSO (Sigma Aldrich, Germany). Then the tested compounds were diluted in culture medium to reach the final concentrations of 625, 125, 25 and 5 μM. Before adding of the tested compounds (24 h prior), the cells were plated in 96-well plates (Sarstedt, Germany) at a density of 1 × 10^4 or 0.5 × 10^4 (A549) cells per well. The assay was performed after 72 h of exposure to 625, 125, 25 and 5 μM of the tested agents. The in vitro cytotoxic effect of all agents was examined using the MTT (MV4-11) or SRB assay, described previously. The results were calculated as an IC50 (inhibitory concentration 50%) the concentration of tested agent, which is cytotoxic for 50% of the cancer cells. Each compound in each concentration was tested in triplicate in a single experiment, which was repeated 3–5 times.

Compound	Mean number of aphids settled on treated (test) leaf (Myzus persicae; 1 h after access)	Mean number of aphids settled on treated (test) leaf (Myzus persicae; 2 h after access)	Mean number of aphids settled on treated (test) leaf (Myzus persicae; 24 h after access)	Effect on aphid settling behavior (deterrent / attractant) (Myzus persicae)	IC50 (LoVo/DX cells) [µM]	Selectivity index SI, LoVo/DX (LoVo/DX cells)	IC50 (MV4-11 cells) [µM]	Selectivity index SI, MV4-11 (MV4-11 cells)	IC50 (LoVo/DX cells; Homo sapiens, LoVo/DX) [µM]	IC50 (MV4-11 cells; Homo sapiens, MV4-11) [µM]
3,7,11,15-tetramethylhexadec-2-en-1-ol [Phytol (1), reference compound]	10.4 (± 1.3)	7.9 (± 1.0)	6.6 (± 0.9)	deterrent properties	70.8 ± 3.9	0.91	51.4 ± 3.6	1.25		
CC(C)CCCC(C)CCCC(C)CCC[C@]1(C)CC(=O)O[C@@H]1CBr (stereo in doubt) [compound 4, trans-5-Bromomethyl-4-methyl-4-(4′,8′,12′-trimethyltridecyl)dihydrofuran-2-one]	2.9 (± 0.7)	2.4 (± 0.6)	4.9 (± 1.7)			1.14		7.43	306 ± 136	46.9 ± 11.7
CC(C)CCCC(C)CCCC(C)CCC[C@]1(C)CC(=O)O[C@H]1CBr (stereo in doubt) [compound 5, cis-5-Bromomethyl-4-methyl-4-(4′,8′,12′-trimethyltridecyl)dihydrofuran-2-one]	3.4 (± 1.0)	3.0 (± 1.1)	5.6 (± 1.4)			1.62		8.15	261 ± 104	52 ± 13.8
CC(C)CCCC(C)CCCC(C)CCC[C@]1(C)CC(=O)O[C@@H]1CCl (stereo in doubt) [compound 6, trans-5-Chloromethyl-4-methyl-4-(4′,8′,12′-trimethyltridecyl)dihydrofuran-2-one]	5.8 (± 1.3)	4.5 (± 1.1)	10.0 (± 1.7)	attractant properties		1.46		5.65	188 ± 32.7	48.3 ± 19.6
CC(C)CCCC(C)CCCC(C)CCC[C@]1(C)CC(=O)O[C@H]1CCl (stereo in doubt) [compound 7, cis-5-chloromethyl-4-methyl-4-(4′,8′,12′-trimethyltridecyl)dihydrofuran-2-one]	4.1 (± 1.0)	3.5 (± 0.7)	4.8 (± 0.9)						237 ± 52.9	110 ± 41.6
C=CC(C)(CCCC(C)CCCC(C)CCCC(C)C)CC(=O)O (centres unmarked) [compound 3, 3,7,11,15-tetramethyl-3-vinylhexadecanoic acid]	8.5 (± 2.1)	8.9 (± 1.0)	8.1 (± 1.3)			2.64		3.69	55 ± 1.5	
